One test has as its target T1, glucocorticoid receptor (Homo sapiens, UniProt P04150).
T1 construct: containing 50-200 ug of A549 cell extract and 1.86 nM [^3H]-dexamethasone; host or cells: A549 human lung epithelial cells (sonicated cell extract)
T1 sequence (P04150 1-777): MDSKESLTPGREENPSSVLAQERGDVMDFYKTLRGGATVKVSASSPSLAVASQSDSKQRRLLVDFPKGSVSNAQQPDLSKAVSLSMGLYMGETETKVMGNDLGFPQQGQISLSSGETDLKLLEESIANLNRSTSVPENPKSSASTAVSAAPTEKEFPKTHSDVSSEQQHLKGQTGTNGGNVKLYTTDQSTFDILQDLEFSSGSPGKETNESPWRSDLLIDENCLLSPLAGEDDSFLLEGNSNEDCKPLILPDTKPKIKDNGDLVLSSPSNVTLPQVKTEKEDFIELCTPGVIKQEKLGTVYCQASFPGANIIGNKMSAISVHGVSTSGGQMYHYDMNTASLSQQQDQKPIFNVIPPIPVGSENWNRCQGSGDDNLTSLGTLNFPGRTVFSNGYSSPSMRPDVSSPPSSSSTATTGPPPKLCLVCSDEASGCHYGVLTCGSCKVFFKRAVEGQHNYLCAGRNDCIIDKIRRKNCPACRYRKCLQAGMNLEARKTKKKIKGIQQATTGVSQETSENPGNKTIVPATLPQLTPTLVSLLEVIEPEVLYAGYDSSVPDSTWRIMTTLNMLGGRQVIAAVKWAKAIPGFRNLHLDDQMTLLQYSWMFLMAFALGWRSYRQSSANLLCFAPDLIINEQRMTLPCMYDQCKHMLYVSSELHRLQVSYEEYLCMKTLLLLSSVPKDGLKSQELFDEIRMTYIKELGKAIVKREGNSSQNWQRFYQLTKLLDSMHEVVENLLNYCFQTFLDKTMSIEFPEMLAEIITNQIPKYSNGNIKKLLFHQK
The test can be described thus: Glucocorticoid Receptor Binding Assay ([3H]-dexamethasone, A549 cell extract). As to conditions: [3H]-dexamethasone binding, read-out: GR Ki. In outline:
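A549 cell extract (50–200 ug) incubated with 1.86 nM [3H]-dexamethasone and test compound for 16 h at 4 °C in Tris-HCl pH 7.2 buffer with glycerol and molybdate. Unbound radioligand removed by dextran-coated charcoal, then supernatant bound counts measured by scintillation.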

The target in a further test is T2, human MR (Homo sapiens, UniProt P08235).
T2 construct: The full length human MR gene is cloned from a human kidney or human brain cDNA library; His tag from the pAcHLT vector (own knowledge); made in house; host or cells: Sf9 insect cells (baculovirus, pAcHLT transfer vector)
T2 sequence (P08235 1-984): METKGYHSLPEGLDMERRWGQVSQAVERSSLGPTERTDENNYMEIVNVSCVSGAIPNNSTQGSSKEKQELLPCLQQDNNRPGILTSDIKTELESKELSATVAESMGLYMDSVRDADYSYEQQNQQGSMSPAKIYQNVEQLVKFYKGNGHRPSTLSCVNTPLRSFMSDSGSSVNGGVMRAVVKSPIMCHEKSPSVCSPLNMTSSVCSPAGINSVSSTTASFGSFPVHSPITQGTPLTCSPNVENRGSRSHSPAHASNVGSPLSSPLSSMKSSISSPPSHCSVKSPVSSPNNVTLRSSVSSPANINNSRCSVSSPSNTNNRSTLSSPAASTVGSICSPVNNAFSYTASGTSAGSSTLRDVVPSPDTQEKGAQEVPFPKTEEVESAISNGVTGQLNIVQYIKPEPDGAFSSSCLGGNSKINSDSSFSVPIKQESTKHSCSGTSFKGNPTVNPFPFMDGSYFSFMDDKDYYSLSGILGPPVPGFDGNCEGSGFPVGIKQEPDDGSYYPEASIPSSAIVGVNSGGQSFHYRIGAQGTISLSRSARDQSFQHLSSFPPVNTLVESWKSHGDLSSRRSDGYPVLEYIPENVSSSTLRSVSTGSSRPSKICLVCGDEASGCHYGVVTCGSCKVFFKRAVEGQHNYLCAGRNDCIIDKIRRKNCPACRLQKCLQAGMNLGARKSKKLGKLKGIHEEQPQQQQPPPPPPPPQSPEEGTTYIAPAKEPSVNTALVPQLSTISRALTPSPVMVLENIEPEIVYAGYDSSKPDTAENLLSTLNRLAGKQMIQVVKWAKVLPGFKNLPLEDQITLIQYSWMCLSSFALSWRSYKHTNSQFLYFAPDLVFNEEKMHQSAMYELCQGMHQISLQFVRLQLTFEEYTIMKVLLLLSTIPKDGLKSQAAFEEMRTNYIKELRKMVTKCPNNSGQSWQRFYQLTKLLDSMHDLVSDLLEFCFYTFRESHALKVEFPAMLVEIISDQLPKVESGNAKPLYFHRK
Nature of the test: Mineralocorticoid Receptor Binding Assay ([3H]-aldosterone). As to conditions: [3H]-aldosterone binding, human MR expressed in Sf9 cells; read-out: MR Ki. In outline:
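Lysate supernatant of Sf9 cells expressing full-length human MR (20-25 μg protein) was incubated with 0.5 nM [3H]-aldosterone and test compound in molybdate/Tris/phosphate/glycerol buffer, pH 7.5, ~16 h at 4 °C. Bound ligand was filtered and counted by scintillation; IC50 is the concentration halving [3H]-aldosterone binding.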

Molecules are shown by their SMILES. A value given as a limit tells only on which side of the number the result lay.

As to `CS(=O)(=O)Nc1cccc(/C=C2/c3ccccc3CCc3ccc(O)cc32)c1` [Example 350], the Ki on glucocorticoid receptor and on human MR was < 0.5 µM each time.
Consider `CS(=O)(=O)Nc1cccc(/C=C2/c3ccccc3CCc3cc(C#N)ccc32)c1` [Example 342], for which the Ki at glucocorticoid receptor and at human MR was < 0.5 µM in each case.
Take `O=c1[nH]c2ccc(C=C3c4ccccc4OCc4c(F)cccc43)cc2[nH]1` [Example 713]: the inhibitory constant (Ki) at glucocorticoid receptor and at human MR was < 0.5 µM in each case.
Turning to `CCCS(=O)(=O)Nc1ccc(C=C2c3ccccc3CCc3ccccc32)cc1` [Example 108, Propane-1-sulfonic acid [4-(10,11-dihydro-dibenzo[a,d]cyclohepten-5-ylidenemethyl)-phenyl]-amide], the Ki at glucocorticoid receptor and on human MR was < 0.5 µM each time.
As for `COc1ccc2c(c1OC)CSc1ccccc1/C2=C/c1cccc(NS(C)(=O)=O)c1` [Example 684], the Ki at glucocorticoid receptor and on human MR was < 0.5 µM throughout.
With `O=c1[nH]c2ccc(/C=C3\c4ccc(Cl)cc4COc4ccccc43)cc2[nH]1` [Example 641], the results for the Ki on glucocorticoid receptor and on human MR were < 1 µM and < 0.5 µM, respectively.
As for `CN(C)c1ccccc1C=C1c2ccccc2CCc2ccccc21` [Example 121, [2-(10,11-Dihydro-dibenzo[a,d]cyclohepten-5-ylidenemethyl)-phenyl]-dimethyl-amine], the Ki on glucocorticoid receptor is < 10 µM; at human MR, < 0.5 µM.
On to `O=C1Cc2ccc(C=C3c4ccccc4CCc4ccccc43)cc2N1` [Example 447], for which the Ki at glucocorticoid receptor and on human MR was < 0.5 µM each time.
`O/N=C/c1cccc(C=C2c3ccccc3CCc3ccccc32)c1` [Example 78, 3-(10,11-Dihydro-dibenzo[a,d]cyclohepten-5-ylidenemethyl)-benzaldehyde oxime]: the figures for the Ki at glucocorticoid receptor and on human MR were < 1 µM and < 0.5 µM, respectively.
Take `CC/C(=C1/c2ccc(OC)cc2COc2cc(F)ccc21)c1cccc(NS(C)(=O)=O)c1` [Example 823]: the inhibition constant (Ki) on glucocorticoid receptor and on human MR was < 0.5 µM in each case.
Consider `O=c1[nH]c2ccc(/C=C3/c4ccccc4CCc4cccc(Cl)c43)cc2[nH]1` [Example 465], for which the Ki on glucocorticoid receptor is < 1 µM; on human MR, < 0.5 µM.
`CS(=O)(=O)Nc1cc(F)cc(/C=C2/c3ccc(F)cc3CCc3ncccc32)c1` [Example 525]: the Ki at glucocorticoid receptor and on human MR was < 0.5 µM each time.
In the case of `Oc1cccc(C=C2c3ccccc3CCc3c2ccc(Cl)c3Cl)c1` [198(a), 3-(1,2-Dichloro-10,11-dihydro-dibenzo[a,d]cyclohepten-5-ylidenemethyl)-phenol], the Ki on glucocorticoid receptor and at human MR was < 0.5 µM each time.
Consider `CS(=O)(=O)Nc1cccc(/C=C2\c3ccccc3CCc3cc(-c4nn[nH]n4)ccc32)c1` [Example 343], for which the values for the Ki on glucocorticoid receptor and at human MR were < 0.5 µM and < 1 µM, respectively.
Taken in the same sequence, the figures for `CS(=O)(=O)Nc1cc(C=C2c3ccccc3CCc3ccccc32)ccc1F` [Example 49, N-[5-(10,11-Dihydro-dibenzo[a,d]cyclohepten-5-ylidenemethyl)-2-fluoro-phenyl]-methanesulfonamide] were < 0.5 µM and < 0.5 µM.
As to `Oc1cccc(C=C2c3ccccc3CCc3c2cccc3C(Br)Br)c1` [Example 373], the Ki at glucocorticoid receptor is < 10 µM; at human MR, < 0.5 µM.
The like results for `CC(=O)Nc1nc(C)c(S(=O)(=O)Nc2cccc(C=C3c4ccccc4CCc4cc(Cl)ccc43)c2)s1` [Example 297] were, in that order, < 10 µM and < 0.5 µM.
In the case of `N#CNc1cccc(C=C2c3ccc(F)cc3CCc3cc(F)ccc32)c1` [Example 385], the figures for the inhibition constant Ki on glucocorticoid receptor and on human MR were < 1 µM and < 0.5 µM, respectively.
Take `Nc1cccc(C=C2c3ccccc3[C@H]3C[C@H]3c3ccccc32)c1` [Example 604]: the Ki is < 1 µM at glucocorticoid receptor and < 0.5 µM on human MR.
The like results for `CS(=O)(=O)Nc1cccc(/C=C2\c3cccnc3CCc3c(F)cccc32)c1` [Example 574] were, in that order, < 0.5 µM and < 0.5 µM.
For `CS(=O)(=O)Nc1cccc(CC2c3ccccc3CCc3ccc(Cl)cc32)c1` (stereo not shown) [Example 189, N-[3-(3-Chloro-10,11-dihydro-5H-dibenzo[a,d]cyclohepten-5-ylmethyl)-phenyl]-methanesulfonamide], the Ki on glucocorticoid receptor and on human MR was < 0.5 µM in each case.
Take `Cc1nc2c(s1)/C(=C/c1cccc(NS(C)(=O)=O)c1)c1ccccc1CC2` [483(a), N-[3-(2-Methyl-9,10-dihydro-3-thia-1-aza-benzo[f]azulen-4-ylidenemethyl)-phenyl]-methanesulfonamide]: the Ki at glucocorticoid receptor and on human MR was < 0.5 µM in each case.
For `CS(=O)(=O)Nc1cccc(C=C2c3ccccc3CCc3cc(Cl)ccc32)c1` [206(b), N-[3-(2-Chloro-10,11-dihydro-dibenzo[a,d]cyclohepten-5-ylidenemethyl)-phenyl]-methanesulfonamide], the Ki at glucocorticoid receptor and on human MR was < 0.5 µM in each case.
With `Cc1cccc2c1CCc1ccccc1/C2=C\c1ccc(NS(C)(=O)=O)cc1` [Example 316], the Ki on glucocorticoid receptor and at human MR was < 0.5 µM throughout.
For `Oc1cc(C=C2c3ccccc3CCc3ccccc32)ccc1Cl` [Example 157, 2-Chloro-5-(10,11-dihydro-dibenzo[a,d]cyclohepten-5-ylidenemethyl)-phenol], the values for the Ki at glucocorticoid receptor and on human MR were < 1 µM and < 0.5 µM, respectively.
As for `CS(=O)(=O)Nc1cccc(C=C2c3ccccc3CCc3ccccc32)n1` [Example 231, N-[6-(10,11-Dihydro-dibenzo[a,d]cyclohepten-5-ylidenemethyl)-pyridin-2-yl]-methanesulfonamide], the inhibition constant Ki on glucocorticoid receptor and at human MR was < 0.5 µM each time.
Turning to `CS(=O)(=O)Nc1cccc(/C=C2\c3ccccc3OCc3c(F)cccc32)c1` [Example 732], the Ki at glucocorticoid receptor and at human MR was < 0.5 µM each time.
Consider `Cn1c(=O)[nH]c2cc(/C=C3/c4ccccc4COc4cc(F)ccc43)ccc21` [Example 634], for which the Ki at glucocorticoid receptor and at human MR was < 0.5 µM each time.
For `O=c1[nH]c2ccc(C=C3c4cc(Cl)ccc4COc4ccccc43)cc2[nH]1` [Example 715], the Ki at glucocorticoid receptor was < 1 µM; at human MR, < 0.5 µM.
In the case of `CS(=O)(=O)Nc1cccc(/C=C2/c3ccccc3CCc3cc(-c4ccccc4)ccc32)c1` [Example 306], the results for the Ki at glucocorticoid receptor and on human MR were < 1 µM and < 0.5 µM, respectively.
Take `COc1ccc2c(c1)OCc1ccccc1/C2=C/c1cccc(NS(C)(=O)=O)c1` [Example 706]: the inhibition constant Ki at glucocorticoid receptor and on human MR was < 0.5 µM each time.
Regarding `CS(=O)(=O)Nc1cccc(C=C2c3ccccc3CCc3ccc(S(C)(=O)=O)cc32)c1` [Example 321], the inhibitory constant (Ki) on glucocorticoid receptor and on human MR was < 0.5 µM throughout.

As a reminder, the Ki is a measure of affinity in units of concentration, obtained from inhibition or displacement.
